Assay [1] deals with primary hepatocytes of methylmalonic acidemia patients. Nature of the assay: Propionyl-CoA and methylmalonyl-CoA from 13C-labelled sources in MMA primary hepatocytes (Example 2). It is filed as cell-based, human. The method, then: Primary hepatocytes isolated from livers of methylmalonic acidemia patients are treated with increasing doses of Compound 5 (0, 0.1, 0.3, 1, 3, 10, 30, 100 µM) for 30 min. After 30 minutes the cells are challenged with the different sources of P-CoA, which may include 13C-KIVA (1 mM), ^13C-isoleucine (3 mM), ^13C-threonine (5 mM), ^13C-methionine (5 mM), ^13C-heptanoate (100 μM), or ^13C-propionate (5 mM) for 60 minutes. At the end of the challenge period, media is removed and the cells are lysed with 70% MeCN and 0.1% TFA containing 100 μM of ethymalonyl-CoA as an internal standard and harvested. Cell lysates are processed for HTMS/MS analysis.

The test system of assay [2] is Hepatocytes from propionic academia patients. Nature of the assay: Ureagenesis (15N-urea) in HemoShear REVEAL-Tx technology (Example 3). It is filed as cell-based, human. Particulars: PA primary hepatocytes, treated day 5 to day 7, 15N-NH4Cl 4 hrs. The text has this:
For this experiment, we deployed the HemoShear REVEAL-Tx™ technology, which is based on the cone-and-plate configuration or viscometer combined with a porous polycarbonate membrane that mimics a filtering layer of sinusoidal endothelial cells (see: Dash A, Deering TG, Marukian S, et al. Physiological Hemodynamics and Transport Restore Insulin and Glucagon Responses in a Normal Glucose Milieu in Hepatocytes In Vitro. 73rd Scientific Sessions of the American Diabetes Association, 2013 (Chicago), and U.S. Pat. Nos. 7,811,782 and 9,500,642, and 9,617,521, each of which is incorporated by reference herein in its entirety).
Hepatocytes from propionic academia patients are plated in a collagen gel sandwich on one side of the membrane replicating the polarized orientation found in vivo within the hepatic sinusoids. On the other side, medium is continuously perfused and surface shear rates are applied across a range of physiological values derived from sinusoidal flow rates in vivo while also controlling transport in the system with in- and out-flow tubing to each compartment. […]
Hepatocytes are treated with increasing doses of Compound 5 (0, 0.1, 0.3, 1, 3, 10, 30, 100 μM) in the HemoShear REVEAL-Tx™ technology from day 5 to day 7. […] After 4 hrs, cells are washed 2× in saline solution and lysed, scraped and harvested using 80% methanol. ^15N-urea is measured by GCMSMS.

In another assay the test system is MMA pHeps. Nature of the assay: Static cell culture, MMA pHeps, low/high propiogenic media. It is filed as cell-based, human. Particulars: for Percent change (30 μM), 12C-Acetyl-CoA / Percent change (30 μM), CoASH: static culture 1.5 h. The method, then:
(§1) Unlike the HemoShear Technology, this assay is carried out without constant perfusion, utilizing cell culture media that was customized to mimic plasma levels of propiogenic sources (amino acids and ketoacids) in PA and MMA patients during periods of relative metabolic stability (low propiogenic media) and acute metabolic crisis (high propiogenic media). PA and MMA pHeps, in static cell culture, were treated with Compound 5 (concentrations ranging from 0.1 μM to 100 μM) for 30 minutes in low propiogenic media, followed by either a continuation of low propiogenic media or a switch to the high propiogenic media for 1 hour. The media used during the 1-hour incubation contained propiogenic SIL amino acids and ketoacids which are metabolized into labeled P-CoA and M-CoA in the cells. The SIL amino acids and ketoacids were a mix of ^13C and MeD8 labelling, but their catabolism produced a SIL P-CoA (denoted as ^13C—P-CoA for simplicity) with the same mass, independent of the type of SIL (also true for ^13C-M-CoA).

Assay [3] relates to primary hepatocyte model of isovaleric acidemia. Nature of the assay: Isovaleryl-CoA from 13C-leucine in primary hepatocyte model of isovaleric acidemia (Example 4). As to conditions: primary hepatocytes with/without isovaleryl-CoA dehydrogenase inhibitor. It is filed as cell-based. The method, then: Primary hepatocytes are treated with increasing doses of Compound 5 (0, 0.1, 0.3, 1, 3, 10, 30, 100 μM) with and without an inhibitor for isovaleryl-CoA dehydrogenase for 30 min. After 30 min the cells are challenged with 13C-leucine. At the end of the challenge period, media is removed and the cells are lysed with 70% MeCN and 0.1% TFA containing 100 μM of ethymalonyl-CoA as an internal standard and harvested. Cell lysates are processed for HTMS/MS analysis.

Assay [4] has as its system primary hepatocytes of propionic acidemia patients. Nature of the assay: Propionyl-CoA from 13C-labelled sources in PA primary hepatocytes (Example 1). Particulars: 0-100 μM. It is filed as cell-based, human. The method, then: Primary hepatocytes isolated from livers of propionic acidemia patients are treated with increasing doses of Compound 5 (0, 0.1, 0.3, 1, 3, 10, 30, 100 μM) for 30 minutes. After 30 minutes the cells are challenged with the different sources of P-CoA, which may include 13C-KIVA (1 mM), 13C-isoleucine (3 mM), 13C-threonine (5 mM), 13C-methionine (5 mM), 13C-heptanoate (100 μM), or 13C-propionate (5 mM) for 60 minutes. At the end of the challenge period, media is removed and the cells are lysed with 70% MeCN and 0.1% TFA containing 100 μM of ethymalonyl-CoA as an internal standard and harvested. Cell lysates are processed for HTMS/MS analysis.

The test system of a further assay is PA pHeps. Nature of the assay: Static cell culture, PA pHeps, low/high propiogenic media. It is filed as cell-based, human. Particulars: for % change at 30 μM, 13C-Propionyl-CoA (13C-P-CoA): static cell culture; for Percent change (30 μM), 12C-Acetyl-CoA / Percent change (30 μM), CoASH: static culture 1.5 h. The method, then: as §1
Setting [5] is: static cell culture, high propiogenic media.
Where [6] appears, read: static cell culture, low propiogenic media.

On to `CCC(C)(C)C(=O)O` [Compound 5, 2,2-dimethylbutyric acid], for which, in assay [1], the “intracellular propionyl-CoA and methylmalonyl-CoA from all sources investigated” value is given as “dose-dependent reduction”. In assay [2], the “15N-urea (ureagenesis)” value was “dose-dependent increase”. Besides, the “% change at 30 μM, 13C-Methymalonic acid” value in the assay with MMA pHeps (setting [5]) is reported as −91 ± 4%; in the assay with MMA pHeps (setting [6]), −83.2 ± 5^ %. In addition, the “% change at 30 μM, 13C-Propionyl-CoA (13C-P-CoA)” value is recorded as −75.9±7.3% with MMA pHeps (setting [5]), −77.6±9.8% in the assay with MMA pHeps (setting [6]), −85.3±9.1% in the assay with PA pHeps (high propiogenic media) and −76.4±12.6% in the assay with PA pHeps (low propiogenic media). For the same compound, the “% change at 30 μM, 12C-Methylmalonyl-CoA (13C-M-CoA)” value with MMA pHeps (setting [6]) is reported as −76.5±13.2%. The “Percent change (30 μM), 12C-Acetyl-CoA” value is reported as −14.6 ± 12.6% in the assay with MMA pHeps (high propiogenic media), −35.5 ± 18.1% with MMA pHeps (low propiogenic media), −27 ± 3.4% in the assay with PA pHeps (high propiogenic media) and −36.6 ± 13.5% with PA pHeps (low propiogenic media). The “Percent change (30 μM), CoASH” value is −28.7 ± 7.3% in the assay on MMA pHeps (high propiogenic media), −47.7 ± 13.4% with MMA pHeps (low propiogenic media), −48 ± 14.3% in the assay with PA pHeps (high propiogenic media) and −55.2 ± 7.1% in the assay on PA pHeps (low propiogenic media). Further, in assay [3], the “intracellular isovaleryl-CoA derived from 13C-leucine” value is listed as “dose-dependent reduction”. For the same compound, in assay [4], the “intracellular propionyl-CoA from all sources investigated” value was “dose-dependent reduction”.

The record behind these values is patent publication US20240366543A1, “METHODS OF TREATING METHYLMALONIC ACIDEMIA AND PROPIONIC ACIDEMIA” (HemoShear Therapeutics, Inc., priority 2021, published 2024).
